Measurements: patent US20230242586A1, “RAS INHIBITORS AND USES THEREOF” (The Regents of the University of California, priority 2020, published 2023)
≈ marks a conversion by molar mass, not a printed value. Entries after “also recorded” stand apart in the source; their conditions may differ.

Assays:
SW1990 cells = test: Ras signaling (p-Akt, p-Erk) in SW1990 cells, Western blot; type: cell-based; conditions: SW1990, 10 μM, 24 h
Description: SW1990 cells were obtained from ATCC and maintained in DMEM (Gibco)+10% heat-inactivated FBS (Axenia Biologix) supplemented with penicillin and streptomycin (Gibco). When indicated, cells were treated with drugs at 60-80% confluency at a final DMSO concentration of 1%. At the end of treatment period, cells were placed on ice and washed once with PBS. The cells were scraped with a spatula, pelleted by centrifugation (500×g, 5 min) and lysed in RIPA buffer supplemented with protease and phosphatase inhibitors (cOmplete and phosSTOP, Roche) on ice for 10 min. Lysates were clarified by high-speed centrifugation. Concentrations of lysates were determined with protein BCA assay (Thermo Fisher) and adjusted to 2 mg/mL with additional RIPA buffer. Samples were mixed with 5×SDS Loading Dye and heated at 95° C. for 5 min.
Gel Electrophoresis and Western Blot
Unless otherwise noted, SDS-PAGE was run with Novex 4-12% Bis-Tris gel (Invitrogen) in MES running buffer (Invitrogen) at 200V for 40 min following the manufacturer's instructions. Protein bands were transferred onto 0.45-μm nitrocellulose membranes (Bio-Rad) using a wet-tank transfer apparatus (Bio-Rad Criterion Blotter) in 1×TOWBIN buffer with 10% methanol at 75V for 45 min. […] The membrane was washed three times with TBST (5 min each wash) and imaged on a Li-COR Odyssey fluorescence imager.

[1] = Solubility in aqueous buffer; type: physicochemical; conditions: for solubility (in words): KD2 Thr10 mutants, compared with parent peptide KD2
[2] = target: T1, K-Ras(G12D)·GppNHp and Raf1-RBD (Homo sapiens, UniProt P01116, G12D); test: TR-FRET Ras-Raf interaction assay, K-Ras(G12D); type: biochemical; conditions: KD2 Thr10 analogs compared to KD2
T1 construct: pET-Duet plasmids encoding BirA biotin-protein ligase and His-Avi-TEV-tagged K-Ras proteins were constructed; made in house; host or cells: E. coli BL21(DE3)
T1 sequence (P01116 1-169 isoform P01116-2 G12D): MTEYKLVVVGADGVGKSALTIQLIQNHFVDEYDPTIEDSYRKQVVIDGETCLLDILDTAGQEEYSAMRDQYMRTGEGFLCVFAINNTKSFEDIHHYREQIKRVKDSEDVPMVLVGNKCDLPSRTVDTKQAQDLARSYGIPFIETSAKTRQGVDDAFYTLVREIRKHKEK

SMILES	Ras signaling (p-Akt or p-Erk levels) (SW1990 cells)	solubility (in words) [1]	potency relative to KD2, Ras·Raf interaction [2]	also measured
CC(C)C[C@@H]1NC(=O)[C@H](CCC(=O)O)NC(=O)[C@H](CC(C)C)NC(=O)[C@@H]2CCCN2C(=O)[C@H](CCCNC(=N)N)NC(=O)[C@H](Cc2ccc(O)cc2)NC(=O)[C@@H]2CCCN2C(=O)[C@H](Cc2ccc(O)cc2)NC(=O)[C@H](CC(N)=O)NC(=O)[C@@H](Cc2ccc(O)cc2)NC(=O)CSC[C@@H](C(=O)NCC(N)=O)NC(=O)[C@H](Cc2ccc(O)cc2)NC(=O)[C@H](Cc2c[nH]c3ccccc23)NC(=O)CNC1=O [KD17]	did not observe any change; also recorded: does not inhibit Ras signaling	–	–	–
N[C@@H](Cc1c[nH]cn1)C(=O)O [His, histidine]	–	limited solubility	–	–
NC[C@H](N)C(=O)O [Dap, 2,3-diaminoproprionic acid]	–	limited solubility	–	–
NCCCC[C@H](N)C(=O)O [Lys, lysine]	–	significantly lower	about 3 fold	–
CC[C@H](C)[C@@H]1NC(=O)[C@H](Cc2ccccc2)NC(=O)[C@H](CCCCN)NC(=O)[C@H](CCC(=O)O)NC(=O)[C@H]([C@@H](C)O)NC(=O)[C@H](C(C)C)NC(=O)[C@H]([C@@H](C)CC)NC(=O)[C@H]([C@@H](C)CC)NC(=O)[C@@H](Cc2ccc(O)cc2)NC(=O)CSC[C@@H](C(=O)NCC(N)=O)NC(=O)[C@H](Cc2c[nH]cn2)NC(=O)[C@H](Cc2c[nH]cn2)NC(=O)[C@H](C(C)C)NC(=O)[C@H](Cc2c[nH]c3ccccc23)NC1=O [KD1]	did not observe any change; also recorded: does not inhibit Ras signaling	–	–	solubility ([1]; aqueous buffer): ~50 µM (≈ 94.2 µg/mL)
CC1CCN(C[C@@H]2NC(=O)[C@H](CCCNC(=N)N)NC(=O)[C@H](Cc3ccccc3)NC(=O)[C@H](CC(N)=O)NC(=O)[C@H](CCCNC(=N)N)NC(=O)[C@H](Cc3ccccc3)NC(=O)[C@H](CC(N)=O)NC(=O)[C@H](C(C)C)NC(=O)[C@H](Cc3ccccc3)NC(=O)[C@@H](Cc3ccc(O)cc3)NC(=O)CSC[C@@H](C(=O)NCC(N)=O)NC(=O)[C@H](CCCNC(=N)N)NC(=O)[C@H](Cc3ccccc3)NC2=O)CC1 [Aza-X]	–	–	> 10 fold	–
